Consider 24 molecules from US9957268B2, “1H-pyrrolo[2,3,c]pyridin-7(6H)-ones and pyrazolo[3,4-c]pyridin-7(6H)-ones as inhibitors of BET proteins” (Incyte Corporation, priority 2014, dated 2018).

For one assay, the target named is BRD4-BD1 (Homo sapiens (Human), UniProt O60885). The experiment in a line: BRD4 AlphaScreen assay (BRD4-BD1). Type of assay: binding. The following applies: biotin-labeled tetra-acetylated histone H4 peptide. As to the method: (§1) BRD4-BD1 and BRD4-BD2 assays were conducted in white 384-well polystyrene plate in a final volume of 40 μL for BD1 and 60 μL for BD2. Inhibitors were first serially diluted in DMSO and added to the plate wells before the addition of other reaction components. The final concentration of DMSO in the assay was 1.25% (BD1) and 0.83% (BD2). The assays were carried out at room temperature in the assay buffer (50 mM Tris-HCl, pH 7.5, 0.01% Tween-20, 0.01% BSA, 5 mM DTT), containing 50 nM Biotin-labeled tetra-acetylated histone H4 peptide (H4Ac4) and BRD4-BD1 or BRD4-BD2 protein at concentration less than 1 nM. The incubation for 75 min. was followed by the addition of 20 μL of assay buffer supplemented with Streptavidin donor beads (PerkinElmer 6760002) and GSH Acceptor beads (PerkinElmer-AL109C) at final concentration 2-4 μg/mL under reduced light. After plate sealing, the plate was incubated in the dark at room temperature for 75 min. before reading on a PHERAstar FS plate reader (BMG Labtech). IC50 determination was performed by fitting the curve of percent control activity versus the log of the inhibitor concentration using the GraphPad Prism 5.0 software.

The next assay concerns the target BRD4-BD2 (Homo sapiens (Human), UniProt O60885). The experiment in a line: BRD4 AlphaScreen assay (BRD4-BD2). The following applies: biotin-labeled tetra-acetylated histone H4 peptide. It is filed as binding. As to the method: as §1
On the technique in general: In Alpha technology, singlet oxygen from a donor bead excites a nearby acceptor bead.

pIC50: −log10 of the molar value.

The term pIC50 denotes the IC50 on a negative log10 scale, so that one unit is a factor of ten. With `CCC1Oc2c(-c3cn(C)c(=O)c4[nH]ccc34)cccc2N(C)C1=O` (stereo not drawn) [Example 8, 2-ethyl-4-methyl-8-(6-methyl-7-oxo-6,7-dihydro-1H-pyrrolo[2,3-c]pyridin-4-yl)-2H-1,4-benzoxazin-3(4H)-one], the negative-log IC50 (pIC50) against BRD4-BD1 is 6.00 to 7.00; against BRD4-BD2, at least 7.00.
The corresponding values for `Cn1cc(-c2cccc3c2OC(C)(C)C(=O)N3)c2cc[nH]c2c1=O` [Example 31, 2,2-dimethyl-8-(6-methyl-7-oxo-6,7-dihydro-1H-pyrrolo[2,3-c]pyridin-4-yl)-2H-1,4-benzoxazin-3(4H)-one] are at least 7.00 and at least 7.00.
As for `COCc1cc2c(c(-c3cn(C)c(=O)c4[nH]ccc34)c1)OC(C(C)C)C(=O)N2` (stereo not drawn) [Example 37, 2-isopropyl-6-(methoxymethyl)-8-(6-methyl-7-oxo-6,7-dihydro-1H-pyrrolo[2,3-c]pyridin-4-yl)-2H-1,4-benzoxazin-3(4H)-one], the negative logarithm of the IC50 (pIC50) on BRD4-BD1 and against BRD4-BD2 was at least 7.00 throughout.
Regarding `Cn1cc(-c2cc(S(C)(=O)=O)cc3c2NC(C)(C)C(=O)N3)c2cc[nH]c2c1=O` [Example 58, 3,3-dimethyl-5-(6-methyl-7-oxo-6,7-dihydro-1H-pyrrolo[2,3-c]pyridin-4-yl)-7-(methylsulfonyl)-3,4-dihydroquinoxalin-2(1H)-one], the negative logarithm of the IC50 (pIC50) against BRD4-BD1 and against BRD4-BD2 was at least 7.00 each time.
`CC(=O)c1cc2c(c(-c3cn(C)c(=O)c4[nH]ccc34)c1)OC(C)(C)C(=O)N2` [Example 80, 6-acetyl-2,2-dimethyl-8-(6-methyl-7-oxo-6,7-dihydro-1H-pyrrolo[2,3-c]pyridin-4-yl)-2H-1,4-benzoxazin-3(4H)-one]: the negative-log IC50 (pIC50) at BRD4-BD1 and on BRD4-BD2 was at least 7.00 throughout.
For the molecule `CC(C)C1Oc2c(cc(C(=O)N(C)C)cc2-c2cn(C)c(=O)c3[nH]ccc23)NC1=O` (stereo not drawn) [Example 34, 2-isopropyl-N,N-dimethyl-8-(6-methyl-7-oxo-6,7-dihydro-1H-pyrrolo[2,3-c]pyridin-4-yl)-3-oxo-3,4-dihydro-2H-1,4-benzoxazine-6-carboxamide], the pIC50 on BRD4-BD1 and against BRD4-BD2 was at least 7.00 throughout.
As for `COc1cc(-c2cn(C)c(=O)c3[nH]ccc23)c2c(c1)N(CC(=O)N1CCN(C)CC1)C(=O)C(C(C)C)O2` (stereo not drawn) [Example 14, 2-isopropyl-6-methoxy-8-(6-methyl-7-oxo-6,7-dihydro-1H-pyrrolo[2,3-c]pyridin-4-yl)-4-[2-(4-methylpiperazin-1-yl)-2-oxoethyl]-2H-1,4-benzoxazin-3(4H)-one], the negative logarithm of the IC50 (pIC50) against BRD4-BD1 is 6.00 to 7.00; on BRD4-BD2, at least 7.00.
Turning to `CC(C)C1Oc2c(-c3cn(C)c(=O)c4[nH]ccc34)cc(S(C)(=O)=O)cc2N(C)C1=O` (single isomer, unassigned) [Example 47A, 2-isopropyl-4-methyl-8-(6-methyl-7-oxo-6,7-dihydro-1H-pyrrolo[2,3-c]pyridin-4-yl)-6-(methylsulfonyl)-2H-1,4-benzoxazin-3(4H)-one], the pIC50 at BRD4-BD1 and at BRD4-BD2 was at least 7.00 each time.
Regarding `CC(C)C1Oc2c(cc(S(C)(=O)=O)cc2-c2cn(C)c(=O)c3[nH]ccc23)NC1=O` (single isomer, unassigned) [Example 44A, 2-isopropyl-8-(6-methyl-7-oxo-6,7-dihydro-1H-pyrrolo[2,3-c]pyridin-4-yl)-6-(methylsulfonyl)-2H-1,4-benzoxazin-3(4H)-one], the negative-log IC50 (pIC50) at BRD4-BD1 and against BRD4-BD2 was at least 7.00 each time.
For the molecule `CCS(=O)(=O)c1cc2c(c(-c3cn(C)c(=O)c4[nH]ccc34)c1)OC(C(C)C)C(=O)N2` (stereo not drawn) [Example 51, 6-(ethylsulfonyl)-2-isopropyl-8-(6-methyl-7-oxo-6,7-dihydro-1H-pyrrolo[2,3-c]pyridin-4-yl)-2H-1,4-benzoxazin-3(4H)-one], the pIC50 against BRD4-BD1 and against BRD4-BD2 was at least 7.00 each time.
As for `CC(=O)NCc1cc2c(c(-c3cn(C)c(=O)c4[nH]ccc34)c1)OC(C(C)C)C(=O)N2` (stereo not drawn) [Example 40, N-{[2-isopropyl-8-(6-methyl-7-oxo-6,7-dihydro-1H-pyrrolo[2,3-c]pyridin-4-yl)-3-oxo-3,4-dihydro-2H-1,4-benzoxazin-6-yl]methyl}acetamide], the pIC50 at BRD4-BD1 and against BRD4-BD2 was at least 7.00 throughout.
`CN1C(=O)C(C)(C)Oc2c(-c3cn(C)c(=O)c4[nH]ccc34)cc(S(C)(=O)=O)cc21` [Example 75, 2,2,4-trimethyl-8-(6-methyl-7-oxo-6,7-dihydro-1H-pyrrolo[2,3-c]pyridin-4-yl)-6-(methylsulfonyl)-2H-1,4-benzoxazin-3(4H)-one]: the pIC50 on BRD4-BD1 and against BRD4-BD2 was at least 7.00 throughout.
Regarding `CC(C)[C@@H]1Nc2c(cc(S(C)(=O)=O)cc2-c2cn(C)c(=O)c3[nH]ccc23)NC1=O` [Example 60, (3S)-3-isopropyl-5-(6-methyl-7-oxo-6,7-dihydro-1H-pyrrolo[2,3-c]pyridin-4-yl)-7-(methylsulfonyl)-3,4-dihydroquinoxalin-2(1H)-one], the negative logarithm of the IC50 (pIC50) against BRD4-BD1 and against BRD4-BD2 was at least 7.00 in each case.
Take `COc1cc2c(c(-c3cn(C)c(=O)c4[nH]ncc34)c1)OC(C1CCCC1)C(=O)N2` (single isomer, unassigned) [Example 42A, 2-cyclopentyl-6-methoxy-8-(6-methyl-7-oxo-6,7-dihydro-1H-pyrazolo[3,4-c]pyridin-4-yl)-2H-1,4-benzoxazin-3(4H)-one]: the pIC50 against BRD4-BD1 and against BRD4-BD2 was at least 7.00 in each case.
For the molecule `CC(C)C1Oc2c(cc(S(C)(=O)=O)cc2-c2cn(C)c(=O)c3[nH]ncc23)NC1=O` (stereo not drawn) [Example 84, 2-isopropyl-8-(6-methyl-7-oxo-6,7-dihydro-1H-pyrazolo[3,4-c]pyridin-4-yl)-6-(methylsulfonyl)-2H-1,4-benzoxazin-3(4H)-one], the pIC50 at BRD4-BD1 and against BRD4-BD2 was at least 7.00 in each case.
In the case of `CC(C)C1Oc2c(-c3cn(C)c(=O)c4[nH]ccc34)cc(S(C)(=O)=O)cc2N(CC2CC2)C1=O` (stereo not drawn) [Example 53, 4-(cyclopropylmethyl)-2-isopropyl-8-(6-methyl-7-oxo-6,7-dihydro-1H-pyrrolo[2,3-c]pyridin-4-yl)-6-(methyslulfonyl)-2H-1,4-benzoxazin-3(4H)-one], the negative-log IC50 (pIC50) against BRD4-BD1 and on BRD4-BD2 was at least 7.00 throughout.
Consider `Cn1cc(-c2cccc3c2OC(c2ccccc2)C(=O)N3)c2cc[nH]c2c1=O` (stereo not drawn) [Example 1, 8-(6-methyl-7-oxo-6,7-dihydro-1H-pyrrolo[2,3-c]pyridin-4-yl)-2-phenyl-2H-1,4-benzoxazin-3(4H)-one], for which the pIC50 on BRD4-BD1 and against BRD4-BD2 was at least 7.00 throughout.
As to `CC(O)c1cc2c(c(-c3cn(C)c(=O)c4[nH]ccc34)c1)OC(C(C)C)C(=O)N2` (stereo not drawn) [Example 50, 6-(1-hydroxyethyl)-2-isopropyl-8-(6-methyl-7-oxo-6,7-dihydro-1H-pyrrolo[2,3-c]pyridin-4-yl)-2H-1,4-benzoxazin-3(4H)-one], the pIC50 against BRD4-BD1 and at BRD4-BD2 was at least 7.00 throughout.
`Cn1cc(-c2cccc3c2OC(c2ccccn2)C(=O)N3)c2cc[nH]c2c1=O` (stereo not drawn) [Example 5, 8-(6-methyl-7-oxo-6,7-dihydro-1H-pyrrolo[2,3-c]pyridin-4-yl)-2-pyridin-2-yl-2H-1,4-benzoxazin-3(4H)-one 2,2,2-trifluoroacetate]: the pIC50 at BRD4-BD1 was 6.00 to 7.00; at BRD4-BD2, at least 7.00.
Regarding `CN1C(=O)C2(CC2)Oc2c(-c3cn(C)c(=O)c4[nH]ccc34)cc(S(C)(=O)=O)cc21` [Example 63, 4-methyl-8-(6-methyl-7-oxo-6,7-dihydro-1H-pyrrolo[2,3-c]pyridin-4-yl)-6-(methylsulfonyl)spiro[1,4-benzoxazine-2,1′-cyclopropan]-3(4H)-one], the pIC50 on BRD4-BD1 and against BRD4-BD2 was at least 7.00 throughout.
For `CN1C(=O)C2(CC2)Oc2c(-c3cn(C)c(=O)c4[nH]ncc34)cc(S(C)(=O)=O)cc21` [Example 66, 4-methyl-8-(6-methyl-7-oxo-6,7-dihydro-1H-pyrazolo[3,4-c]pyridin-4-yl)-6-(methylsulfonyl)spiro[1,4-benzoxazine-2,1′-cyclopropan]-3(4H)-one], the pIC50 on BRD4-BD1 and at BRD4-BD2 was at least 7.00 throughout.
As to `COc1cc2c(c(-c3cn(C)c(=O)c4[nH]ccc34)c1)OC(C1CCCC1)C(=O)N2` (single isomer, unassigned) [Example 35B, 2-Cyclopentyl-6-methoxy-8-(6-methyl-7-oxo-6,7-dihydro-1H-pyrrolo[2,3-c]pyridin-4-yl)-2H-1,4-benzoxazin-3(4H)-one], the pIC50 at BRD4-BD1 and against BRD4-BD2 was at least 7.00 in each case.
As to `COc1cc(-c2cn(C)c(=O)c3[nH]ccc23)c2c(c1)N(CC(=O)O)C(=O)C(C(C)C)O2` (stereo not drawn) [Example 11, [2-isopropyl-6-methoxy-8-(6-methyl-7-oxo-6,7-dihydro-1H-pyrrolo[2,3-c]pyridin-4-yl)-3-oxo-2,3-dihydro-4H-1,4-benzoxazin-4-yl]acetic acid], the pIC50 against BRD4-BD1 and on BRD4-BD2 was 6.00 to 7.00 in each case.
`CN1C(=O)C(C)(C)Oc2c(-c3cn(C)c(=O)c4[nH]ccc34)cc(S(=O)(=O)N3CCCCC3)cc21` [Example 73, 2,2,4-trimethyl-8-(6-methyl-7-oxo-6,7-dihydro-1H-pyrrolo[2,3-c]pyridin-4-yl)-6-(piperidin-1-ylsulfonyl)-2H-1,4-benzoxazin-3(4H)-one]: the pIC50 against BRD4-BD1 and at BRD4-BD2 was at least 7.00 in each case.
